Our source for the MIC values is patent US20240252506A1 (Hoffmann-La Roche Inc., priority 2021, published 2024).

Converted amounts (≈) assume the structure as drawn.

For this test, the system named is Escherichia coli ATCC 25922. The experiment in a line: Minimal Inhibitory Concentration (MIC) determination, broth microdilution (CLSI M07-A10). Format: cell-based. The following applies: Escherichia coli, ATCC25922, strain Escherichia coli ATCC 25922, 18-24 hours at 35±2° C., lowest concentration for complete growth inhibition (no visible growth), read-out: Escherichia coli growth inhibition MIC. The gist of the method: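 MIC read visually as the lowest concentration with complete growth inhibition after 18-24 h at 35±2° C, ambient air. Method follows CLSI M07-A10 broth microdilution, two-fold compound series, inoculum standardized to 0.5 McFarland then diluted 1:200.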
A general note: Broth dilution looks for growth in wells or tubes with falling amounts of substance.
As to `O=C1COc2ncc(N3CC4(CCN(CC5Cc6c(c(F)c7c(nc8n7CCNC8)c6F)C5)CC4)OC3=O)nc2N1` (stereo not drawn) [Example 23, 6-[8-[(10,16-difluoro-2,5,8-triazatetracyclo[7.7.0.02,7.011,15]hexadeca-1(9),7,10,15-tetraen-13-yl)methyl]-2-oxo-1-oxa-3,8-diazaspiro[4.5]decan-3-yl]-4H-pyrazino[2,3-b][1,4]oxazin-3-one], the MIC is 0.5 µg/mL (≈ 0.883 µM).

`O=C1COc2ncc(N3CC4(CCN(CC5Cc6c(c(F)c7[nH]c([C@H]8CCCN8)nc7c6F)C5)CC4)OC3=O)nc2N1` [Example 24, 6-[8-[[4,8-difluoro-2-[(2R)-pyrrolidin-2-yl]-3,5,6,7-tetrahydrocyclopenta[f]benzimidazol-6-yl]methyl]-2-oxo-1-oxa-3,8-diazaspiro[4.5]decan-3-yl]-4H-pyrazino[2,3-b][1,4]oxazin-3-one]: the MIC turned out to be 0.125 µg/mL (≈ 0.215 µM).

As for `C[C@@H](N)c1nc2c(F)c3c(c(F)c2[nH]1)CC(CN1CCC2(CC1)CN(c1cnc4c(n1)NC(=O)CO4)C(=O)O2)C3.O=C(O)C(F)(F)F` [Example 25, 6-[8-[[2-[(1R)-1-aminoethyl]-4,8-difluoro-3,5,6,7-tetrahydrocyclopenta[f]benzimidazol-6-yl]methyl]-2-oxo-1-oxa-3,8-diazaspiro[4.5]decan-3-yl]-4H-pyrazino[2,3-b][1,4]oxazin-3-one; 2,2,2-trifluoroacetic acid], the MIC is at most 0.06 µg/mL.

With `CN[C@H](C)c1nc2c(F)c3c(c(F)c2[nH]1)CC(CNC1CC2(C1)CN(c1cnc4c(n1)NC(=O)CO4)C(=O)O2)C3` (stereo partly drawn) [Example 26, 6-[2-[[4,8-difluoro-2-[(1R)-1-(methylamino)ethyl]-3,5,6,7-tetrahydrocyclopenta[f]benzimidazol-6-yl]methylamino]-6-oxo-5-oxa-7-azaspiro[3.4]octan-7-yl]-4H-pyrazino[2,3-b][1,4]oxazin-3-one], the MIC came out at 0.5 µg/mL (≈ 0.902 µM).

As for `CN[C@H]1CN[C@H](c2nc3c(F)c4c(c(F)c3[nH]2)CC(CN2CCC3(CC2)CN(c2cnc5c(n2)NC(=O)CO5)C(=O)O3)C4)C1` [Example 27, 6-[8-[[4,8-difluoro-2-[(2S,4R)-4-(methylamino)pyrrolidin-2-yl]-3,5,6,7-tetrahydrocyclopenta[f]benzimidazol-6-yl]methyl]-2-oxo-1-oxa-3,8-diazaspiro[4.5]decan-3-yl]-4H-pyrazino[2,3-b][1,4]oxazin-3-one], the MIC worked out at 0.25 µg/mL (≈ 0.41 µM).

Turning to `O=C(O)C(F)(F)F.O=C1COc2ncc(N3CC4(CCN(CC5Cc6c(c(F)c7[nH]c([C@@H]8CC(O)CCN8)nc7c6F)C5)CC4)OC3=O)nc2N1` (stereo partly drawn) [Example 28, 6-[8-[[4,8-difluoro-2-[(2S)-4-hydroxy-2-piperidyl]-3,5,6,7-tetrahydrocyclopenta[f]benzimidazol-6-yl]methyl]-2-oxo-1-oxa-3,8diazaspiro[4.5]decan-3-yl]-4H-pyrazino[2,3-b][1,4]oxazin-3-one; 2,2,2-trifluoroacetic acid], the MIC is 0.25 µg/mL.

For `CN(C)Cc1nc2c(F)c3c(c(F)c2[nH]1)CC(CNC1CC2(C1)CN(c1cnc4c(n1)NC(=O)CO4)C(=O)O2)C3` (stereo not drawn) [Example 29, 6-[2-[[2-[(dimethylamino)methyl]-4,8-difluoro-3,5,6,7-tetrahydrocyclopenta[f]benzimidazol-6-yl]methylamino]-6-oxo-5-oxa-7-azaspiro[3.4]octan-7-yl]-4H-pyrazino[2,3-b][1,4]oxazin-3-one], the minimum inhibitory concentration (MIC) stood at 0.5 µg/mL (≈ 0.902 µM).

Take `CC(C)(N)c1nc2c(F)c3c(c(F)c2[nH]1)CC(CN1CCC2(CC1)CN(c1cnc4c(n1)NC(=O)CO4)C(=O)O2)C3` [Example 30, 6-[8-[[2-(1-amino-1-methyl-ethyl)-4,8-difluoro-3,5,6,7-tetrahydrocyclopenta[f]benzimidazol-6-yl]methyl]-2-oxo-1-oxa-3,8-diazaspiro[4.5]decan-3-yl]-4H-pyrazino[2,3-b][1,4]oxazin-3-one]: the MIC was 0.125 µg/mL (≈ 0.22 µM).

Take `N[C@H]1COC[C@@H]1c1nc2c(F)c3c(c(F)c2[nH]1)CC(CN1CCC2(CC1)CN(c1cnc4c(n1)NC(=O)CO4)C(=O)O2)C3` [Example 31, 6-[8-[[4,8-difluoro-2-[(3S,4R)-4-aminotetrahydrofuran-3-yl]-3,5,6,7-tetrahydrocyclopenta[f]benzimidazol-6-yl]methyl]-2-oxo-1-oxa-3,8-diazaspiro[4.5]decan-3-yl]-4H-pyrazino[2,3-b][1,4]oxazin-3-one]: the MIC was determined as 0.25 µg/mL (≈ 0.419 µM).

Turning to `Nc1nc2c(F)c3c(c(F)c2[nH]1)CC(CN1CCC2(CC1)CN(c1cnc4c(n1)NC(=O)CO4)C(=O)O2)C3` [Example 32, 6-[8-[(2-amino-4,8-difluoro-3,5,6,7-tetrahydrocyclopenta[f]benzimidazol-6-yl)methyl]-2-oxo-1-oxa-3,8-diazaspiro[4.5]decan-3-yl]-4H-pyrazino[2,3-b][1,4]oxazin-3-one], the MIC was 0.25 µg/mL (≈ 0.475 µM).

In the case of `CNCc1nc2c(F)c3c(c(F)c2n1C)CC(CN1CCC2(CC1)CN(c1cnc4c(n1)NC(=O)CO4)C(=O)O2)C3` (stereo not drawn) [Example 33, 6-[8-[[4,8-difluoro-1-methyl-2-(methylaminomethyl)-6,7-dihydro-5H-cyclopenta[f]benzimidazol-6-yl]methyl]-2-oxo-1-oxa-3,8-diazaspiro[4.5]decan-3-yl]-4H-pyrazino[2,3-b][1,4]oxazin-3-one], the MIC was found to be 0.25 µg/mL (≈ 0.44 µM).

For the compound `O=C1COc2ncc(N3CC4(CCN(CC5Cc6c(c(F)c7[nH]c(C89CC(CN8)C9)nc7c6F)C5)CC4)OC3=O)nc2N1` [Example 34, 6-[8-[[2-(2-azabicyclo[2.1.1]hexan-1-yl)-4,8-difluoro-3,5,6,7-tetrahydrocyclopenta[f]benzimidazol-6-yl]methyl]-2-oxo-1-oxa-3,8-diazaspiro[4.5]decan-3-yl]-4H-pyrazino[2,3-b][1,4]oxazin-3-one], the MIC worked out at 0.25 µg/mL (≈ 0.422 µM).

Turning to `CNCC(=O)Nc1nc2c(F)c3c(c(F)c2[nH]1)CC(CN1CCC2(CC1)CN(c1cnc4c(n1)NC(=O)CO4)C(=O)O2)C3` [Example 35, N-[4,8-difluoro-6-[[2-oxo-3-(3-oxo-4H-pyrazino[2,3-b][1,4]oxazin-6-yl)-1-oxa-3,8-diazaspiro[4.5]decan-8-yl]methyl]-3,5,6,7-tetrahydrocyclopenta[f]benzimidazol-2-yl]-2-(methylamino)acetamide], the MIC turned out to be 0.125 µg/mL (≈ 0.209 µM).

Turning to `C[C@H](O)[C@@H](N)c1nc2c(F)c3c(c(F)c2[nH]1)CC(CN1CCC2(CC1)CN(c1cnc4c(n1)NC(=O)CO4)C(=O)O2)C3` [Example 36, 6-[8-[[2-[(1S,2S)-1-amino-2-hydroxy-propyl]-4,8-difluoro-3,5,6,7-tetrahydrocyclopenta[f]benzimidazol-6-yl]methyl]-2-oxo-1-oxa-3,8-diazaspiro[4.5]decan-3-yl]-4H-pyrazino[2,3-b][1,4]oxazin-3-one], the MIC is 0.5 µg/mL (≈ 0.855 µM).

For `CO[C@@H]1CN[C@@H](c2nc3c(F)c4c(c(F)c3[nH]2)CC(CN2CCC3(CC2)CN(c2cnc5c(n2)NC(=O)CO5)C(=O)O3)C4)C1` [Example 37, 6-[8-[[4,8-difluoro-2-[(2R,4S)-4-methoxypyrrolidin-2-yl]-3,5,6,7-tetrahydrocyclopenta[f]benzimidazol-6-yl]methyl]-2-oxo-1-oxa-3,8-diazaspiro[4.5]decan-3-yl]-4H-pyrazino[2,3-b][1,4]oxazin-3-one], the MIC was 0.25 µg/mL (≈ 0.409 µM).

The term MIC denotes the smallest concentration in the dilution series that meets the test's criterion for growth inhibition.
